Data reported in ChEMBL document CHEMBL3102815, “Structure Guided Optimization, in Vitro Activity, and in Vivo Activity of Pan-PIM Kinase Inhibitors” (ACS Med Chem Lett, 2013).

Legend:
[1] = molecular target: T1, Serine/threonine-protein kinase pim-1 (Homo sapiens, UniProt P11309); assay: Inhibition of PIM1 (unknown origin) using Biotin-AGAGRSRHSSYPAGT-OH as substrate after 2 hrs by AlphaScreen assay
[2] = molecular target: T2, Serine/threonine-protein kinase pim-3 (Homo sapiens, UniProt Q86V86); assay: Inhibition of PIM3 (unknown origin) using Biotin-AGAGRSRHSSYPAGT-OH as substrate after 2 hrs by AlphaScreen assay
[3] = molecular target: T3, Serine/threonine-protein kinase pim-2 (Homo sapiens, UniProt Q9P1W9); assay: Inhibition of PIM2 (unknown origin) using Biotin-AGAGRSRHSSYPAGT-OH as substrate after 2 hrs by AlphaScreen assay
T3 sequence (Q9P1W9 whole entry): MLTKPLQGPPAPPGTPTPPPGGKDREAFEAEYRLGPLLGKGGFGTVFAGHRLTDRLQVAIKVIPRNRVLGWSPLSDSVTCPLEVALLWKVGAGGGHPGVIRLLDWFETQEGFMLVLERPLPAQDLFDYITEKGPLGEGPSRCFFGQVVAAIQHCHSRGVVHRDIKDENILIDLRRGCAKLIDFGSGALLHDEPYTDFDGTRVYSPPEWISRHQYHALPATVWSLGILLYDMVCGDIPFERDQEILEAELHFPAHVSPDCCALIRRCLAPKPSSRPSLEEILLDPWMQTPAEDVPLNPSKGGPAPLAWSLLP

[4] = molecular target: T2, Serine/threonine-protein kinase pim-3; assay: Inhibition of PIM3 (unknown origin)
[5] = molecular target: T1, Serine/threonine-protein kinase pim-1; assay: Inhibition of PIM1 (unknown origin) using NH2-AGAGRSRHSSYPAGT-OH as substrate by Kinase-Glo assay
[6] = molecular target: T3, Serine/threonine-protein kinase pim-2
[7] = molecular target: T1, Serine/threonine-protein kinase pim-1
[8] = molecular target: T2, Serine/threonine-protein kinase pim-3; assay: Inhibition of PIM3 (unknown origin) using NH2-AGAGRSRHSSYPAGT-OH as substrate by Kinase-Glo assay
[9] = molecular target: T3, Serine/threonine-protein kinase pim-2; assay: Inhibition of PIM2 (unknown origin) using NH2-AGAGRSRHSSYPAGT-OH as substrate by Kinase-Glo assay
EOL1 = assay: Antitumor activity against human EOL-1 cells xenografted in po dosed mouse administered daily; assay type: functional, organism-based

T1 sequence (P11309 whole entry): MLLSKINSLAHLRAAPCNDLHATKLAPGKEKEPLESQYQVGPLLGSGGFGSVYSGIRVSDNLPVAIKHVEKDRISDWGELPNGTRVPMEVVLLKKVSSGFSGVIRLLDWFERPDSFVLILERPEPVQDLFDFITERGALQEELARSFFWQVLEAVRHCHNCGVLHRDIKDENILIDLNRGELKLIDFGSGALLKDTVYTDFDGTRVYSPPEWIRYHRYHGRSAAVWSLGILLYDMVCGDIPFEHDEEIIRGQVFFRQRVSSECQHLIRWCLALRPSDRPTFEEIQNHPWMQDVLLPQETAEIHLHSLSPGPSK

SMILES | Ki [4] [nM] | Ki [6] [nM] | Ki [7] [nM] | further results
Nc1ccc(-c2c(F)cccc2F)nc1C(=O)Nc1cnccc1N1CCC[C@H](N)C1 |  |  |  | Ki [1]: 0.002 nM; Ki [2]: 0.006 nM; Ki [3]: 0.004 nM
Nc1cccnc1C(=O)Nc1ccccc1N1CCCCC1 | 12000 | > 12500 | 3300 | 
Nc1nccnc1C(=O)Nc1cnccc1N1CCNCC1 | 1000 | > 12500 | 810 | 
Nc1nccnc1C(=O)Nc1ccccc1N1CCCCC1 | 1500 | 7000 | 460 | 
CC(=O)Nc1nc(C(=O)Nc2cnccc2N2CCCCC2)cs1 | 220 | > 12500 | 61 | 
Nc1ccc(-c2c(F)cccc2F)nc1C(=O)Nc1cnccc1N1CC[C@@H](O)[C@H](N)C1 | 0.007 | 0.006 | 0.002 | 
Nc1ccc(-c2ccccc2Cl)nc1C(=O)Nc1cnccc1N1CCC[C@H](N)C1 |  |  |  | Ki [8]: < 1 nM; Ki [9]: < 1 nM; Ki [5]: < 1 nM
O=C(Nc1ccccc1N1CCCCC1)c1cscn1 | > 12500 | > 12500 | 1800 | 
CC(=O)Nc1nc(C(=O)Nc2ccncc2N2CCCCC2)cs1 | 140 | 6300 | 59 | 
CC(=O)Nc1nc(C(=O)Nc2ccccc2N2CCCCC2)cs1 | 230 | > 12500 |  | 
O=C(Nc1ccccc1N1CCCCC1)c1ncccc1O | > 12500 | > 12500 | 12300 | 
NCC1CCCN(c2ccncc2NC(=O)c2nccnc2N)C1 (racemic) | 50 | 700 | 11 | 
Nc1nccc(-c2ccc(N)c(C(=O)Nc3cnccc3N3CCC[C@H](N)C3)n2)n1 | 3 | 16 | 1 | 
C[C@H]1CN(c2ccncc2NC(=O)c2ccc(F)c(-c3c(F)cccc3F)n2)C[C@@H](N)[C@@H]1O |  |  |  | Activity (EOL1): Dose-dependent effect
COc1ccccc1-c1ccc(N)c(C(=O)Nc2cnccc2N2CCC[C@H](N)C2)n1 |  | 8 |  | Ki [8]: < 1 nM; Ki [5]: < 1 nM

Further lines, with some results ahead:

Ki [4] [nM] | Ki [6] [nM] | Ki [7] [nM] | SMILES | further results
4 | 12 |  | Nc1ccc(-c2cccnc2)nc1C(=O)Nc1cnccc1N1CCC[C@H](N)C1 | Ki [5]: < 1 nM
5 | 6 |  | Nc1ccc(-c2ccncc2)nc1C(=O)Nc1cnccc1N1CCC[C@H](N)C1 | Ki [5]: < 1 nM
1700 | > 12500 | 1000 | CC(=O)Nc1nc(C(=O)Nc2cnc(N)cc2N2CCCCC2)cs1 | 
20 | 110 | 18 | Nc1cccnc1C(=O)Nc1cnccc1N1CCC[C@H](N)C1 | 
> 12500 | > 12500 | > 12500 | O=C(Nc1ccccc1N1CCCCC1)c1ncc[nH]1 | 
> 12500 | > 12500 | > 12500 | CC(=O)Nc1nc(C(=O)Nc2cnc(N)nc2N2CCCCC2)cs1 | 
3 | 6 |  | Nc1ccc(-c2ccccn2)nc1C(=O)Nc1cnccc1N1CCC[C@H](N)C1 | Ki [5]: < 1 nM
24 |  |  | CN1CCC(CNc2ccc3ncc(-c4cccc(OC(F)(F)F)c4)n3n2)CC1 [SGI-1776] | 
15 | 122 | 4 | Nc1ccc(Oc2ccccc2)nc1C(=O)Nc1cnccc1N1CCC[C@H](N)C1 | 
490 | 2000 | 122 | NCC(=O)N1CCN(c2ccncc2NC(=O)c2nccnc2N)CC1 | 
180 | 680 | 56 | NCCC(=O)N1CCN(c2ccncc2NC(=O)c2nccnc2N)CC1 | 
3 | 7 | 3 | Nc1ccc(-c2ccccc2C(F)(F)F)nc1C(=O)Nc1cnccc1N1CCC[C@H](N)C1 | 
20 | 70 |  | Nc1nccnc1C(=O)Nc1cnccc1N1CCC[C@H](N)C1 | 
11000 | > 12500 | 2300 | Nc1cccc(C(=O)Nc2ccccc2N2CCCCC2)n1 | 
90 | 1600 | 30 | Nc1nccnc1C(=O)Nc1cnccc1N1CCCCC1 | 
> 12500 | > 12500 | > 12500 | CC(=O)Nc1nc(C(=O)Nc2cncnc2N2CCCCC2)cs1 | 
